Reference: article PMC8448719 (Archives of Toxicology, 2021)
Like-named read-outs stand apart in the source and are kept apart here.

Legend:
[1] = Metabolism of BaP in incubations with rat liver microsomes; format: in vitro ADME, rat
Method: (§1) All in vitro Vmax values were scaled to microsomal or S9 protein content of rat liver using the following scaling factors: 45 mg microsomal protein per gram liver tissue and 125 mg S9 protein per gram liver tissue (Houston and Galetin [2008]). The scaled Vmax values were subsequently converted to Vmax in nmol/min/liver using the liver weight of 9.1 g, calculated from the body weight and fractional liver weight presented in Table 1. The Km in vitro was assumed equal to the Km in vivo.
(§2) The incubation mixtures consisted of (final concentrations) 0.1 mM potassium phosphate (pH 7.4), 5 mM MgCl2, 0.5 mg/ml rat liver microsomes or 2 mg/ml rat lung microsomes, and 1 mM NADPH in conical glass vials. […] The mixtures were incubated in a shaking water bath at 37 °C for 30 min. 20 µl ice-cold 10% (v/v) perchloric acid (HClO4) was added to terminate the reactions and the mixtures were put on ice for at least 15 min. Di-isopropyl ether (DIPE) was used to extract BaP and its metabolites from the incubation mixture. To this end, 1 ml DIPE was added to each incubation mixture, the tubes vortexed for 20 s and the upper layer was collected. Extraction was performed three times. Remaining DIPE was removed by evaporation under a stream of N2. Subsequently, extracts were re-dissolved in 100 µl methanol and transferred to UPLC vials for analysis.
The UPLC was equipped with a Photodiode Array (PDA) detector, recording wavelengths between 190 and 400 nm and a Phenomenex C18 column (Phenomenex, Torrance, California, United States). The column temperature was kept at 40 °C and the auto-sampler at 4 °C during analysis. The mobile phase consisted of Nanopure water containing 0.1% (v/v) trifluoroacetic acid (TFA) (A) and acetonitrile containing 0.1% (v/v) TFA (B) at a flow rate of 0.3 ml/min. The total run time was 23 min and 30 s, starting with 10% B for 30 s, increasing to 100% B in 15 min, maintaining this condition for 3 min before returning to the initial conditions of 10% B in 30 s. 10 µl of sample was injected per run. Under these conditions the metabolite 3-OHBaP, detected at 258 nm, eluted at 10.16 min. For the glucuronidated and sulfonated metabolite of 3-OHBaP, retention time and detection wavelength were 7.5 min, 303.3 nm and 7.4 min, 301 nm, respectively. The amounts of 3-OHBaP in the microsomal incubation sample and of glucuronidated and sulfated 3-OHBaP in the S9 incubation samples were quantified by integrating peak areas at their respective wavelengths using a calibration curve prepared with commercially available 3-OHBaP. To obtain the Vmax and Km the in vitro data for the substrate concentration-dependent rate of metabolite formation were fitted to the Michaelis–Menten equation using Graphpad Prism 9.0.1 for Windows (GraphPad Software, San Diego, California, USA).

[2] = Glucuronidation of 3-OHBaP in incubations with rat liver S9; format: in vitro ADME
Method: as §1
(§3) Incubations with rat liver and lung S9 fractions were optimized to establish linearity over time and protein concentrations for the rate of glucuronidation and sulfation of 3-OHBaP. […]
Kinetics for 3-OHBaP glucuronidation, were quantified using incubations with pooled liver S9 fractions from male SD rats. […]
(§4) All incubation mixtures were pre-incubated for 1 min, after which the reaction was initiated by addition of 3-OHBaP in final concentrations ranging from 0.01 to 50 µM (glucuronidation) or 0.01–100 µM (sulfation) added from 100 times concentrated stock solutions in DMSO to reach the final volume of 200 µl (1% DMSO v/v). […] The supernatant was collected and analysed by Ultra Performance Liquid Chromatography (UPLC). […]

[3] = Sulfation of 3-OHBaP in incubations with rat liver S9; format: in vitro ADME; settings: male, SD, pooled rat liver S9, pH 7.4
Method: as §1, §3
Hepatic sulfonation of 3-OHBaP was evaluated using pooled liver S9 fractions of male SD rats, in incubation mixtures with a final volume of 200 µl in conical glass vials containing (final concentrations) 0.1 mM Tris–HCl (pH 7.4), 0.1 mg/ml rat liver S9 and 0.2 mM PAPS.
as §4

[4] = PBK model prediction of 3-OHBaP blood concentrations in rat; settings: intravenous; Marie et al. (2010)
From the text: The conceptual PBK model for BaP consisted of separate compartments for venous blood, arterial blood, fat tissue, liver tissue, lung tissue, rapidly and slowly perfused tissue, stomach and intestines. 3-OHBaP is highly lipophilic. To prevent 3-OHBaP from partitioning into the fat tissue in the model simulations, it was essential to include a blood protein compartment in the model to allow binding of 3-OHBaP to blood protein. The unbound fraction of 3-OHBaP in the blood compartment was represented by the fub, in vivo, calculated as described in “Translating in vitro concentration–response data into in vivo dose–response data using PBK modelling-based reverse dosimetry” section. The fraction of 3-OHBaP bound to protein in the blood protein compartment (fb, in vivo) was calculated as 1 minus the fub, in vivo. […] Clearance of 3-OHBaP was assumed to result from hepatic and pulmonary conjugation (Cohen [1990]; Cohen and Moore [1976]). […]
For oral exposure, stomach emptying and intestinal transfer of the parent compound were included. […] The Papp, in vivo was calculated using the following equation: log (Papp, in vivo) = 0.6836 × log (Papp, Caco−2) − 0.5579 (Sun et al. [2002]) and applied in the model as described before (Zhang et al. [2018]). […]

[5] = 3-OHBaP in rat blood, read-out: Cmax reported, cited from earlier work
ES-D3 cells = tested on: ES-D3 cells; set-up: method as in Kamelia et al. (2020); settings: without bioactivation; ref Kamelia et al. (2020); cited from earlier work
[6] = rat PBK model; ref Crowell et al. (2011); cited from earlier work
[7] = format: in vitro ADME; settings: rat, 30 min, pH 7.4
Method: as §2
The UPLC was equipped with a Photodiode Array (PDA) detector, recording wavelengths between 190 and 400 nm and a Phenomenex C18 column (Phenomenex, Torrance, California, United States). […] Under these conditions the metabolite 3-OHBaP, detected at 258 nm, eluted at 10.16 min. […] The amounts of 3-OHBaP in the microsomal incubation sample and of glucuronidated and sulfated 3-OHBaP in the S9 incubation samples were quantified by integrating peak areas at their respective wavelengths using a calibration curve prepared with commercially available 3-OHBaP. […]

F-344 rat = experiment: In vivo reproductive toxicity of BaP (foetal survival), nasal inhalation; settings: inhalation expressed as oral dose equivalent, data of Archibong et al. (2002)
Method: Foetal survival, calculated as the fraction of live foetuses relative to the number of implantation sites reported in these studies, was taken as measure for in vivo reproductive toxicity. […] These oral dose equivalents in mg/kg bw were used for the comparison with model predicted dose–response data.
ED50 values were calculated for the predicted and reported dose–response data, using the non-linear regression with three parameters in Graphpad Prism version 9.0.1 for Windows (GraphPad Software, San Diego, California USA). The ED50 value was calculated for the fraction differentiated into beating cardiomyocytes for the predicted dose–response data. For the in vivo studies, foetus survival (number of live foetuses as fraction of total implantations) was used as response.

Caco-2 cells = settings: cited from earlier work
[8] = rat, in vivo; cited from earlier work
[9] = formation of the metabolite from BaP, rat liver microsomes

For `O=C1C=Cc2ccc3c4c(ccc1c24)-c1ccccc1C3=O` [B[a]P-1,6-quinone], the Vmax [1, 9] was 22.2 ± 3.2 pmol/min/mg microsomal protein.
With `O=C1C=Cc2ccc3c4c(ccc1c24)C(=O)c1ccccc1-3` [B[a]P-3,6-quinone] the Vmax [1, 9] was 3.0 ± 0.5 pmol/min/mg microsomal protein.
For `Oc1ccc2ccc3c4ccccc4cc4ccc1c2c43` [3-OHBaP, 3-hydroxybenzo[a]pyrene], the Vmax [1, 9] was 162.2 ± 47.6 pmol/min/mg microsomal protein, the “Concentration at which substrate inhibition occurred” value ([2]; glucuronidation) was no less than 50000 nM and the Km at 20 min ([2]; male, SD, pooled rat liver S9, pH 7.4, glucuronidation of 3-OHBaP) was 10 µM. For the same molecule, the Km at 70 min [3] was 17 µM, the “Cmax reported relative to predicted Cmax (fold higher)” value [4] was 1.1 fold and the Cmax ([5]; intratracheal 10 mg/kg bw BaP, ref Moreau and Bouchard (2015)) was 140 nM. The Cmax ([5]; intravenous 10 mg/kg bw BaP, ref Marie et al. (2010)) was 720 nM, the Cmax ([5]; intravenous 10 mg/kg bw BaP, ref Moreau and Bouchard (2015)) was 220 nM and the Cmax ([5]; oral 10 mg/kg bw BaP, ref Moreau and Bouchard (2015)) was 100 nM. For the same molecule, the “Result in the EST” value (ES-D3 cells) was “induces developmental toxicity”, the “Tissue:blood partition coefficient, fat” value [6] was 401 and the “Tissue:blood partition coefficient, liver” value [6] was 12.24. For the same molecule, the “Tissue:blood partition coefficient, lung” value [6] was 12.24, the “Tissue:blood partition coefficient, rapidly perfused tissue” value [6] was 12.24 and the “Tissue:blood partition coefficient, slowly perfused tissue” value [6] was 6.43.
With `c1ccc2c(c1)cc1ccc3cccc4ccc2c1c34` [BaP, benzo[a]pyrene] the Vmax ([1]; rat, 30 min, pH 7.4) was 0.16 nmol/min/mg microsomal protein, the “Vmax scaled to the whole liver” value ([1]; rat, 30 min, pH 7.4) was 4.1 µmol/min/liver and the Km at 30 min ([1]; rat, pH 7.4, Km) was 34 µM. For the same molecule, the “Rate of 3-OHBaP formation” value ([7]; 200 µM) was 0.81 pmol/min/mg protein, the “Formation of 3-OHBaP in lung microsomes” value [7] was “did not result in formation of detectable levels of 3-OHBaP” and the “ED50 derived from reported in vivo dose-response data” value (F-344 rat) was 29 mg/kg bw per day. The “Log Papp, Caco-2” value (Caco-2 cells) was -5.42, the “Papp, Caco-2” value (Caco-2 cells) was 3.8 x1E-6 cm/sec and the “Blood concentration in maternal versus foetal blood” value [8] was “similar”.
